Measured values reported in paper PMC7822874, “Chemoprotective antimalarials identified through quantitative high-throughput screening of Plasmodium blood and liver stage parasites” (Scientific Reports, 2021).
Where two headings read alike, the source gives them in different places.

Legend:
Assay type in all cases: cell-based, Plasmodium falciparum
[1] = system: P. falciparum Dd2 Cytb G131S; assay: SYBR Green ABS proliferation assay, NCGC00374598 selected clone C11; details: Plasmodium falciparum
Method: (§1) As resistance selection studies implicated the parasite cytochrome bc1 complex in mediating reduced parasite susceptibility to both NCGC00473217 and NCGC00374598, we leveraged these drug-selected parasites to test for altered drug response to a panel of antimalarial compounds.
(§2) The P. falciparum parasite Dd2 line was cultured in vitro using standard conditions. […] Tissue culture flasks and assay plates were incubated at 37 °C under a gas mixture of 5% CO2, 5% O2 and 90% N2. […] Significant differences were assessed using two-sided Student’s t-tests. All HTS assays were stopped and read at 72 h. Percent response values represent relative growth as judged by SYBR Green-I fluorescence intensity values normalized to controls.
(§3) Fresh uninfected RBCs (0.5% hematocrit) were added on day 7 and media was changed every other day. […] Resistant parasites were maintained under drug media at a volume of 50 mL until a high parasitemia (> 5%) was achieved. Aliquots of the bulk resistant cultures were frozen in cryovials before cloning by limiting dilution in 96-well plates (seeded at 0.25 or 0.5 parasites/well)[70]. After 3 weeks of cloning, we screened for positive wells by flow cytometry with SYBR Green-stained cells. […] Parasites were harvested by saponin lysis at the trophozoite stage and genomic DNA was extracted using the QIAamp DNA Blood Midi Kit (Qiagen, Germantown, MD)[71].

[2] = system: P. falciparum Dd2 Cytb F123L; assay: SYBR Green ABS proliferation assay, NCGC00473217 selected clone G08; details: Plasmodium falciparum
Method: as §1, §2, §3

[3] = system: P. falciparum Dd2 Cytb V259L; assay: SYBR Green ABS proliferation assay, NCGC00473217 selected clone F06; details: Plasmodium falciparum
Method: as §1, §2, §3

[4] = system: P. falciparum Dd2 Cytb A122D; assay: SYBR Green ABS proliferation assay, NCGC00473217 selected clone F12; details: Plasmodium falciparum
Method: as §1, §2, §3

[5] = system: P. falciparum Dd2 (clone B2) asexual blood stage parasites; assay: P. falciparum Dd2 asexual blood stage SYBR Green-I 72 h proliferation assay (qHTS); details: Plasmodium falciparum, DD2, Dd2 parental; Hill fit, averaged from three independent replicates; top concentration 29 µM; read-out: Average AC50 (Log[M]), Dd2 (converted)
[6] = DD2, cytochrome b mutant line, second value triple, c6, […], read-out: log AC50, mean (converted)
[7] = DD2, cytochrome b mutant line, fifth value triple, c15, […], read-out: log AC50, mean (converted)
[8] = DD2, cytochrome b mutant line, third value triple, c9, […], read-out: log AC50, mean (converted)
[9] = DD2, cytochrome b mutant line, fourth value triple, c12, […], read-out: log AC50, mean (converted)
[10] = DD2, […], averaged from three independent replicates, top concentration 29 µM, read-out: Average AC50 (Log[M]), NCGC00374598 clone C11 (Cytb G131S) (converted)
[11] = DD2, […], averaged from three independent replicates, top concentration 29 µM, read-out: Average AC50 (Log[M]), NCGC00473217 clone F06 (Cytb V259L) (converted)
[12] = DD2, […], averaged from three independent replicates, top concentration 29 µM, read-out: Average AC50 (Log[M]), NCGC00473217 clone F12 (Cytb A122D) (converted)
[13] = DD2, […], averaged from three independent replicates, top concentration 29 µM, read-out: Average AC50 (Log[M]), NCGC00473217 clone G08 (Cytb F123L) (converted)

Structure (SMILES)	AC50 [1, 6] [M]	AC50 [2, 7] [M]	AC50 [3, 8] [M]	AC50 [4, 9] [M]	AC50 [1, 10] [M]	AC50 [5] [M]	AC50 [3, 11] [M]	AC50 [4, 12] [M]	AC50 [2, 13] [M]
CCCN1C(CC(C)C)=N[S+](=O)([O-])c2cc(NC(=O)c3ccccc3C(F)(F)F)ccc21 [NCGC00531765-01]	7.67e-06	1.17e-05	7.52e-06	1.17e-05	–	–	–	–	–
CCCN1C(CC2CCCCC2)=N[S+](=O)([O-])c2cc(NC(=O)c3cccs3)ccc21 [NCGC00532404-01]	9.66e-07	3.99e-06	1.5e-06	1.53e-06	–	–	–	–	–
O=C(Nc1ccc2c(c1)[S+](=O)([O-])N=C1CCCN12)c1cccs1 [NCGC00537660-01]	–	2e-09	–	–	–	–	–	–	–
COc1ccc(-c2nc(C3CC3)nc3c2CCN(C(=O)c2ccc(C(F)(F)F)cc2)CC3)cc1 [NCGC00374638-01]	1.19e-05	1.06e-05	1.38e-05	1.28e-05	–	–	–	–	–
CCCN1C(CC(C)C)=N[S+](=O)([O-])c2cc(NC(=O)c3ccc(F)cc3)ccc21 [NCGC00521139-01]	–	–	–	–	3.56e-07	5.22e-07	5.64e-07	4.74e-07	–
CCCN1C(CC(C)C)=N[S+](=O)([O-])c2cc(N(Cc3cccs3)Cc3cccs3)ccc21 [NCGC00531812-01]	6.32e-06	4.66e-06	3.56e-06	3.99e-06	–	–	–	–	–
N[S+](=O)([O-])c1cc2c(cc1C(F)(F)F)NCN[S+]2(=O)[O-] [NCGC00016401-08]	–	–	–	–	2.24e-05	–	3.85e-06	3.56e-06	3.56e-06
CCCN1C(CC(C)C)=N[S+](=O)([O-])c2cc(N)ccc21 [NCGC00521151-01]	–	–	–	–	2e-06	2e-05	–	–	3.99e-06
COc1cc(OC)c(OC)cc1CN1CCc2nc(N(C)C)[nH]c(=O)c2CC1 [NCGC00440589-01]	2.66e-06	2.03e-06	2.76e-06	1.61e-06	–	–	–	–	–
COc1ccc(CN2CCc3nc(C4CC4)nc(-c4ccc(O)cc4)c3CC2)cc1 [NCGC00480355-01]	1.06e-05	1.23e-05	1.61e-05	1.19e-05	–	–	–	–	–
CCCN1C(CC(C)C)=N[S+](=O)([O-])c2cc(N[S+](=O)([O-])c3cccs3)ccc21 [NCGC00521163-01]	–	–	–	–	–	1.78e-05	1.59e-05	8.93e-06	1.12e-05
Cc1ccccc1C(=O)N1CCc2nc(C3CC3)nc(-c3ccc(O)cc3)c2CC1 [NCGC00480365-01]	1.38e-05	1.38e-05	1.28e-05	1.81e-05	–	–	–	–	–
COc1ccc(-c2nc(C(C)C)nc3c2CCN(C(=O)Nc2ccccc2)CC3)cc1 [NCGC00479509-01]	1.19e-05	1.23e-05	1.61e-05	1.44e-05	–	–	–	–	–
CCCN1C(CC(C)C)=N[S+](=O)([O-])c2cc(NC(=O)c3ccc(-c4ccccc4)cc3)ccc21 [NCGC00521159-01]	–	–	–	–	7.1e-06	8.93e-06	7.1e-06	8.93e-06	–
CCCN1C(C)=N[S+](=O)([O-])c2cc(NC(=O)c3ccccc3)ccc21 [NCGC00522605-01]	–	–	–	–	2e-06	1e-05	–	–	3.56e-07
NS(=O)(=O)c1cc2c(cc1C(F)(F)F)NC(Cc1ccccc1)NS2(=O)=O (centres unmarked) [NCGC00018194-08]	–	–	–	–	1e-08	–	1.26e-06	–	8.93e-06
CCCN1C(CC(C)C)=N[S+](=O)([O-])c2cc(NC(=O)c3c(C)noc3C)ccc21 [NCGC00521866-01]	–	–	–	–	1e-05	1.78e-05	–	7.52e-06	2.52e-06
CN1C(CC2CCCCC2)=N[S+](=O)([O-])c2cc(NC(=O)c3ccc(F)s3)ccc21 [NCGC00651709-01]	5.96e-06	1.68e-05	–	5.31e-06	–	–	–	–	–
